According to article PMC6178183, “Development of a HPLC-MS/MS Method to Determine 11 Bioactive Compounds in Tongmai Yangxin Pill and Application to a Pharmacokinetic Study in Rats” (Evidence-based Complementary and Alternative Medicine : eCAM, 2018):
Several values for one entry are separate records, joined by “and”; a condition that tells them apart may be missing. Equal values may be shown once.

Key:
[1] = tested on: human umbilical vein endothelial cells; set-up: method as in doi:10.1039/C6RA19212B; conditions: human umbilical vein endothelial cells in zebrafish; cited from earlier work
[2] = Stability of analytes in rat plasma QC samples under storage conditions; type: in vitro ADME; conditions: n=6, gallic acid, ononin, schisandrin, stilbene glycoside, liquiritigenin, rhein, verbascoside; for Measured Concentration, auto-sampler for 12 h: prepared rat plasma samples; for Measured Concentration, -70°C for 14 days / Measured Concentration, room temperature for 6 h / Measured Concentration, three freeze-thaw cycles: rat plasma
Procedure: Quality control (QC) samples at three concentrations (low, medium, and high concentration) were made up of appropriate mixed standard solutions with blank blood sample as calibration solutions to meet the required concentrations. All the solutions were kept at 4°C.
The stability of analytes in plasma samples was determined by analyzing QC samples of three concentration levels at different conditions: stored at autosampler for 12 h, at room temperature for 6 h, under three freeze-thaw cycles and stored at -70°C for 14 days. All stability studies were measured in six replicates.

[3] = Pharmacokinetic study in rats after oral administration of TMYX extract (HPLC-MS/MS of plasma); type: in vivo, Sprague–Dawley rats; conditions: rat plasma; for AUC(0-inf) / half-life / AUC / k el: male, Sprague-Dawley; for AUC(0-inf) / half-life / AUC / k el / C max1 / T max1 / C max2 / T max2: oral TMYX extract 8.3 g/kg single dose; for AUC(0-inf) / half-life / AUC / k el / C max1 / C max2 / T max2: n=6; for AUC: read-out: AUC (0-tn); for k el: read-out: K e (converted); for peaks in the mean plasma concentration-time profile: oral TMYX extract 8.3 g/kg; for T max1: n=6, mean ± SD; for C max2 / T max2: second peak
Procedure: The HPLC-MS/MS system consists of an Agilent 1200 high-performance liquid chromatography coupled with an Aglient 6430 series triple quadrupole mass spectrometer with an electrospray ionization (ESI) source. The chromatographic separation was achieved on a CORTECS C18 column (4.6 mm × 150 mm, 2.7 μm), and the column temperature was kept at 30°C. Mobile phases which consisted of 0.1% formic acid in water (A) and acetonitrile (B) were used in the following gradient elution method: 0-10 min, 10%-85% B; 10-13 min, 85%-95% B; 13-19 min, 95%-95% B. The flow rate was set at 0.3 mL/min, and the injection volume was 10 μL. All data were analyzed by Mass Hunter workstation software (Agilent Technologies, USA).
The mass spectrometer was carried out in both positive and negative ionization multiple-reaction monitoring (MRM) mode. The source parameters were as follows: the capillary voltage set at 300 V for positive ionization mode and -300 V for negative ionization mode, the drying gas temperature was 320°C, the flow was 11 L/min, and nebulizing gas pressure was 30 psi.
The plasma (100 μL) was spiked with 20 μL of methanol, 20 μL of the IS (icariin, 1 μg/mL), and 20 μL of formic acid and then vortex-mixed. The mixture was extracted with 800 μL of ethyl acetate by vortex mixing for 5 min at room temperature. After centrifugation at 14,000 rpm for 10 min, the supernatant was collected to a clean tube and evaporated to dryness under a nitrogen stream. The residue was reconstituted in 50 μL of 50% methanol, vortexed for 5 min, and centrifuged at 14,000 rpm for 10 min. Finally, 10 μL supernatant was injected into the LC-MS/MS system for analysis.
Male Sprague–Dawley rats (230-250 g) were obtained from Beijing HFK Experimental Animal Technology Co., Ltd. The rats were maintained under the control environmental conditions and they fasted for 12 h with free access to water before the experiments. TMYX extracts were dissolved in CMC-Na and administrated orally to rats at 8.3 g/kg. The blood samples (200 μL) were collected from the rat fossa orbitalis vein at 0, 0.03, 0.083, 0.17, 0.25, 0.5, 1, 2, 4, 6, 8, 10, 12, 24, 36, and 48 h after oral administration to heparinized tubes. And then the blood samples were centrifuged at 7,000 rpm for 10 min to get the plasma sample immediately. Finally, the plasma obtained was stored at −70°C until analysis. Pharmacokinetic parameters were calculated by the computer program “Drug and Statistics 2.0” (DAS 2.0) (Medical College of Wannan, China).

[4] = set-up: method as in PMID 26771134; conditions: rat plasma, oral Radix glycyrrhizae or combination of Radix glycyrrhizae and Ramulus cinnamomi; cited from earlier work
[5] = set-up: method as in PMID 25943824; conditions: active ingredients of TMYX with high R values; cited from earlier work
[6] = set-up: method as in PMID 23608243; conditions: rat dosed processed Radix polygoni multiflori; cited from earlier work
[7] = high QC: spiked 2000 ng/mL glycyrrhizic acid, 1000 liquiritin, 200 emodin, 100 isoliquiritigenin
[8] = low QC: spiked 20 ng/mL glycyrrhizic acid, 10 liquiritin, 2 emodin, 1 isoliquiritigenin
[9] = medium QC: spiked 200 ng/mL glycyrrhizic acid, 100 liquiritin, 20 emodin, 10 isoliquiritigenin

Measured Concentration, auto-sampler for 12 h [2, 7]	Measured Concentration, auto-sampler for 12 h [2, 8]	Measured Concentration, auto-sampler for 12 h [2, 9]	Measured Concentration, -70°C for 14 days [2, 7]	Measured Concentration, room temperature for 6 h [2, 7]	Measured Concentration, three freeze-thaw cycles [2, 7]	Measured Concentration, -70°C for 14 days [2, 8]	Measured Concentration, room temperature for 6 h [2, 8]	Measured Concentration, three freeze-thaw cycles [2, 8]	Measured Concentration, -70°C for 14 days [2, 9]	Measured Concentration, room temperature for 6 h [2, 9]	Measured Concentration, three freeze-thaw cycles [2, 9]	AUC(0-inf) [3]	half-life [3]	AUC [3]	k el [3]	C max1 [3]	T max1 [3]	SMILES	proliferation and angiogenesis [1]	antiinflammatory effects [5]	further results
–	–	–	–	–	–	–	–	–	–	–	–	–	–	–	–	–	–	COc1cc2c(c(OC)c1CC=C(C)C)C(=O)[C@H](c1ccc(O)c(CC=C(C)C)c1O)CO2 [licorisoflavan A]	promote proliferation and angiogenesis	–	–
92.65 ± 0.68 ng/mL	0.87 ± 0.01 ng/mL	8.63 ± 0.23 ng/mL	91.88 ± 0.86 ng/mL	112.69 ± 1.30 ng/mL	92.59 ± 0.63 ng/mL	0.88 ± 0.02 ng/mL	0.87 ± 0.01 ng/mL	0.89 ± 0.02 ng/mL	9.26 ± 0.08 ng/mL	10.82 ± 0.58 ng/mL	8.99 ± 0.07 ng/mL	333 ± 142 ng·h/mL	12.7 ± 7.04 h	315 ± 130 ng·h/mL	0.000139 s⁻¹	37.8 ± 24.1 ng/mL	0.20 h and 0.20 ± 0.07 h	O=C1C[C@@H](c2ccc(O)cc2)Oc2cc(O)ccc21 [liquiritigenin]	–	–	peaks in the mean plasma concentration-time profile [3]: double peaks; C max2 [3]: 21.0 ± 15.3 ng/mL; T max2 [3]: 7.20 h and 7.20 ± 3.35 h; peaks in plasma concentration-time profile [4]: One peak
–	–	–	–	–	–	–	–	–	–	–	–	–	–	–	–	–	–	COc1c(CC=C(C)C)c(O)cc2oc(=O)c(-c3ccc(O)cc3O)cc12 [glycycoumarin]	promote proliferation and angiogenesis	–	–
–	–	–	–	–	–	–	–	–	–	–	–	–	–	–	–	–	–	CC(C)=CCc1cc(-c2oc3cc(O)c(CC=C(C)C)c(O)c3c(=O)c2O)ccc1O [glyasperin A]	promote proliferation and angiogenesis	–	–
182.40 ± 1.23 ng/mL	1.89 ± 0.00 ng/mL	19.00 ± 0.64 ng/mL	203.34 ± 1.39 ng/mL	202.79 ± 12.80 ng/mL	200.45 ± 2.10 ng/mL	1.99 ± 0.01 ng/mL	1.82 ± 0.01 ng/mL	2.00 ± 0.03 ng/mL	20.01 ± 0.31 ng/mL	20.88 ± 1.19 ng/mL	19.87 ± 1.43 ng/mL	298 ± 185 ng·h/mL	1.99 ± 1.31 h	284 ± 189 ng·h/mL	0.000125 s⁻¹	99.1 ± 27.1 ng/mL	0.50 ± 0.31 h	OC[C@H]1O[C@@H](Oc2c(O)cc(O)cc2/C=C/c2ccc(O)cc2)[C@H](O)[C@@H](O)[C@@H]1O [stilbene glycoside]	–	exert antiinflammatory effects in a dose-dependent manner	–
1884.66 ± 9.26 ng/mL	19.25 ± 0.34 ng/mL	200.96 ± 3.93 ng/mL	1834.54 ± 29.34 ng/mL	2099.10 ± 8.92 ng/mL	1869.00 ± 42.55 ng/mL	18.77 ± 0.09 ng/mL	20.49 ± 0.79 ng/mL	19.30 ± 0.20 ng/mL	200.33 ± 2.98 ng/mL	203.22 ± 3.32 ng/mL	188.63 ± 3.57 ng/mL	17300 ± 11000 ng·h/mL	18.2 ± 9.61 h	12700 ± 5060 ng·h/mL	1.39e-05 s⁻¹	351.7 ± 347.4 ng/mL	2.13 h and 2.13 ± 1.44 h	CC1(C)[C@@H](O[C@H]2O[C@H](C(=O)O)[C@@H](O)[C@H](O)[C@H]2O[C@@H]2O[C@H](C(=O)O)[C@@H](O)[C@H](O)[C@H]2O)CC[C@]2(C)[C@H]3C(=O)C=C4[C@@H]5C[C@@](C)(C(=O)O)CC[C@]5(C)CC[C@@]4(C)[C@]3(C)CC[C@@H]12 [glycyrrhizic acid]	–	exert antiinflammatory effects in a dose-dependent manner	detection in vivo at 48 h ([3]; 48 h after oral TMYX extract 8.3 g/kg): can still be detected in vivo at 48 h; peaks in the mean plasma concentration-time profile [3]: double peaks; C max2 [3]: 476.1 ± 146.0 ng/mL; T max2 [3]: 17.67 h and 17.67 ± 10.31 h; peaks in plasma concentration-time profile [4]: One peak
196.02 ± 2.10 ng/mL	1.83 ± 0.02 ng/mL	18.35 ± 0.09 ng/mL	183.83 ± 1.00 ng/mL	194.61 ± 1.13 ng/mL	189.32 ± 1.74 ng/mL	1.77 ± 0.03 ng/mL	2.00 ± 0.04 ng/mL	1.71 ± 0.01 ng/mL	17.86 ± 0.20 ng/mL	21.15 ± 0.50 ng/mL	18.28 ± 0.23 ng/mL	473 ± 321 ng·h/mL	2.73 ± 1.54 h	411 ± 239 ng·h/mL	9.44e-05 s⁻¹	92.6 ± 53.0 ng/mL	1.00 ± 0.92 h	COc1cc2c(c(OC)c1OC)-c1c(cc(OC)c(OC)c1OC)C[C@](C)(O)[C@@H](C)C2 [schisandrin]	–	exert antiinflammatory effects in a dose-dependent manner	–
–	–	–	–	–	–	–	–	–	–	–	–	–	–	–	–	–	–	CC(C)=CCc1c(O)ccc(-c2coc3cc(O)cc(O)c3c2=O)c1O [licoisoflavone A]	promote proliferation and angiogenesis	–	–

SMILES	Measured Concentration, auto-sampler for 12 h [2, 7]	Measured Concentration, auto-sampler for 12 h [2, 8]	Measured Concentration, auto-sampler for 12 h [2, 9]	Measured Concentration, -70°C for 14 days [2, 7]	Measured Concentration, room temperature for 6 h [2, 7]	Measured Concentration, three freeze-thaw cycles [2, 7]	Measured Concentration, -70°C for 14 days [2, 8]	Measured Concentration, room temperature for 6 h [2, 8]	Measured Concentration, three freeze-thaw cycles [2, 8]	Measured Concentration, -70°C for 14 days [2, 9]	Measured Concentration, room temperature for 6 h [2, 9]	Measured Concentration, three freeze-thaw cycles [2, 9]	AUC(0-inf) [3]	half-life [3]	AUC [3]	k el [3]	C max1 [3]	T max1 [3]	proliferation and angiogenesis [1]	antiinflammatory effects [5]	further results
Cc1cc(O)c2c(c1)C(=O)c1cc(O)cc(O)c1C2=O [emodin]	200.50 ± 11.66 ng/mL	1.93 ± 0.02 ng/mL	19.88 ± 1.81 ng/mL	185.45 ± 0.98 ng/mL	207.49 ± 1.27 ng/mL	197.74 ± 5.65 ng/mL	1.86 ± 0.03 ng/mL	1.95 ± 0.05 ng/mL	2.00 ± 0.02 ng/mL	18.79 ± 0.18 ng/mL	21.14 ± 0.99 ng/mL	19.21 ± 0.33 ng/mL	561 ± 192 ng·h/mL	4.21 ± 2.63 h	476 ± 121 ng·h/mL	0.000108 s⁻¹	88.0 ± 37.5 ng/mL	0.32 ± 0.14 h	–	–	peaks in plasma profile [6]: one peak
